Test results from patent US9000208B2, “Glutamate derivatives or salts thereof” (Ajinomoto Co., Inc., priority 2010, dated 2015).
Counter-ions that a name gives are not always drawn. Numbered stars: 1 amine (or outer) side, 2 acyl side, 3 side chain; on linkers, the order of the positions; unused ones are H or OH. Square brackets hold non-standard residues; d marks the D form. Ends that are not written are not given here. γGlu = O=C(O)[C@H](CCC(=O)[*:2])N[*:1]

What was measured:
[1] = Evaluation of kokumi taste, quantitative sensory evaluation test; parameters: species or system human; conditions: for Kokumi Intensity Aftertaste / Kokumi Intensity First-middle taste: score control 0, strong 3, very strong 5, n=4
Experimental: On the compounds in which the calcium receptor activating action was found (sodium salts of Compound Nos. 1, 7 and 21), the intensity of kokumi-imparting activity was examined by a quantitative sensory evaluation test. In 5 ml of distilled water was dissolved 525 mg of Compound No. 1 described in REFERENCE EXAMPLE I and of REFERENCE […] EXAMPLE I. By adding 16.4 ml of 0.1M sodium hydroxide solution to the resulting solution, the solution was adjusted to pH 6.5 to 7 followed by freeze-drying. The resulting Na salt was provided for use. In addition, 500 mg of Compound No. 7 described in REFERENCE EXAMPLE I and REFERENCE […] EXAMPLE 7 was suspended in 5 ml of distilled water. To the suspension were sequentially added 1.61 ml of 1M sodium hydroxide and 0.8 ml of 2M hydrochloric acid at 0° C. The solid precipitated was taken out by filtration and dried under reduced pressure at 40° C. to give 426 mg of Reference Compound No. 7. After the solid substance obtained was suspended in 10 ml of distilled water, 1.2 ml of 1M sodium hydroxide was added to the suspension and freeze-dried. The resulting Na salt was provided for use. Reference Compound No. 21 was used in the form of the Na salt, which was prepared from Compound No. 21 described in REFERENCE EXAMPLE I and REFERENCE […] EXAMPLE 21 by the same procedures as described above.
A quantitative sensory evaluation test was conducted as follows. The intensity of kokumi-imparting activity was examined when 0.000001 to 0.1 g/dl of the compound as a sample (No. 1—Na salt) was mixed with distilled water containing sodium glutamate (0.05 g/dl), inosine monophosphate (0.05 g/dl) and sodium chloride (0.5 g/dl). As a reference, γGlu-Cys-Gly and γGlu-Val-Gly were used, each of which is a known kokumi-imparting component. The sample that became acidic to an additive-free control after dissolving the sample was used by adjusting its pH within ±0.2 with NaOH based on the additive-free control. Sensory scoring was defined as a control: 0, strong: 3 and very strong: 5, and performed in n=4. Meanwhile, a “first-middle taste” is intended to mean the taste combining the first taste and middle taste.

rat large intestine loop = assay: Effect of CaSR agonist on water absorption in rat large intestine loop method (PGE2-treated); assay type: in vivo; conditions: male SD (IGS) rat, PGE2 i.p., compound in Tyrode solution in the loop, 1 hour
Experimental: Under pentobarbital anesthesia the cecum and large intestine were isolated from the abdomen of a male SD (IGS) rat, and a large intestine loop was prepared by ligating a point 5 cm just below the cecum. Immediately after preparing the loop, PGE2 (4 μg/ml/kg, SIGMA) was intraperitoneally administered. Thirty minutes later, 2 ml of Tyrode solution (136.9 mM NaCl, 2.7 mM KCl, 1.8 mM CaCl2.2H2O, 1.04 mM MgCl2.6H2O, 0.04 mM NaH2PO4.2H2O, 5.55 mM glucose and 11.9 mM NaHCO3) was poured into the loop prepared. An hour later, the weight of the loop, the weight when the liquid was removed from the loop and the loop area were measured to calculate the weight per unit area of the liquid that remains in the loop.
A test compound was dissolved in Tyrode solution (adjusted to pH 6.5 to 7.5), which was provided for tests.
The remaining liquid weight per unit area (g/cm^2) was calculated by the following equation. Remaining liquid weight per unit area (g/cm^2)=(loop weight−loop weight when the liquid was removed from the loop)/loop area
Water absorption was evaluated by calculating the inhibition ratio by the following equation. Inhibition ratio(%)=100−(remaining liquid weight per unit area with a drug−basic average remaining liquid weight per unit area)/(average remaining liquid weight per unit area of vehicle−basic average remaining liquid weight per unit area)×100 […]

N[C@@H](CCC(=O)Nc1cccc(S(=O)(=O)O)c1)C(=O)O [No. 1-Na salt, N^5-(3-sulfophenyl)-L-glutamine]
kokumi-imparting activity ([1]; 0.000001 to 0.1 g/dl in water with sodium glutamate 0.05, inosine monophosphate 0.05, sodium chloride 0.5 g/dl): widely found in the above concentrations | Kokumi Intensity Aftertaste ([1]; 0.00001 g/dl): 1.0 | Kokumi Intensity First-middle taste ([1]; 0.00001 g/dl): 0.7 | Comments on Sensory Evaluation ([1]; 0.0001 g/dl): There was harmony accompanied | Kokumi Intensity Aftertaste ([1]; 0.0001 g/dl): 2.0 | Kokumi Intensity First-middle taste ([1]; 0.0001 g/dl): 1.8 | Kokumi Intensity Aftertaste ([1]; 0.0005 g/dl): 3.0 | Kokumi Intensity First-middle taste ([1]; 0.0005 g/dl): 2.6 | Kokumi Intensity Aftertaste ([1]; 0.001 g/dl): 3.6 | Kokumi Intensity First-middle taste ([1]; 0.001 g/dl): 3.2 | Comments on Sensory Evaluation ([1]; 0.01 g/dl): All tastes were strong. | Kokumi Intensity Aftertaste ([1]; 0.01 g/dl): 5.0 | Kokumi Intensity First-middle taste ([1]; 0.01 g/dl): 5.0

N[C@@H](CCC(=O)Nc1cc(Cl)cc(S(=O)(=O)O)c1O)C(=O)O [No. 7-Na salt, N^5-(5-chloro-2-hydroxy-3-sulfophenyl)-L-glutamine]
Comments on Sensory Evaluation ([1]; 0.00005 g/dl): Thickness mainly in the middle taste. | Kokumi Intensity Aftertaste ([1]; 0.00005 g/dl): 2.5 | Kokumi Intensity First-middle taste ([1]; 0.00005 g/dl): 2.2 | Kokumi Intensity Aftertaste ([1]; 0.0001 g/dl): 3.2 | Kokumi Intensity First-middle taste ([1]; 0.0001 g/dl): 2.5 | Comments on Sensory Evaluation ([1]; 0.0005 g/dl): Rich thickness in the middle taste | Kokumi Intensity Aftertaste ([1]; 0.0005 g/dl): 4.0 | Kokumi Intensity First-middle taste ([1]; 0.0005 g/dl): 3.3

Cc1c(Cl)cc(NC(=O)CC[C@H](N)C(=O)O)cc1S(=O)(=O)O [No. 21-Na salt, N^5-(3-chloro-4-methyl-5-sulfophenyl)-L-glutamine]
Kokumi Intensity Aftertaste ([1]; 0.0002 g/dl): 2.0 | Kokumi Intensity First-middle taste ([1]; 0.0002 g/dl): 1.5 | Kokumi Intensity Aftertaste ([1]; 0.0005 g/dl): 3.1 | Kokumi Intensity First-middle taste ([1]; 0.0005 g/dl): 2.6 | Kokumi Intensity Aftertaste ([1]; 0.001 g/dl): 3.7 | Kokumi Intensity First-middle taste ([1]; 0.001 g/dl): 3.1

N[C@@H](CCC(=O)Nc1cccc(S(=O)(=O)O)c1)C(=O)O [Reference Compound No. 1, N^5-(3-sulfophenyl)-L-glutamine]
Water absorption (rat large intestine loop): promoted dose-dependently

N[C@@H](CCC(=O)Nc1cc(Cl)cc(S(=O)(=O)O)c1O)C(=O)O [Reference Compound No. 7, N^5-(5-chloro-2-hydroxy-3-sulfophenyl)-L-glutamine]
Water absorption (rat large intestine loop): promoted in a dose-dependent manner

[γGlu]-Cys-Gly
Comments on Sensory Evaluation ([1]; 0.01 g/dl): Richness, thickness and continuity | Kokumi Intensity Aftertaste ([1]; 0.01 g/dl): 3.0 | Kokumi Intensity First-middle taste ([1]; 0.01 g/dl): 3.0

[γGlu]-Val-Gly
Comments on Sensory Evaluation ([1]; 0.001 g/dl): Smoothness, richness and growth | Kokumi Intensity Aftertaste ([1]; 0.001 g/dl): 3.0 | Kokumi Intensity First-middle taste ([1]; 0.001 g/dl): 2.5 | Comments on Sensory Evaluation ([1]; 0.005 g/dl): Smoothness, richness and growth | Kokumi Intensity Aftertaste ([1]; 0.005 g/dl): 4.0 | Kokumi Intensity First-middle taste ([1]; 0.005 g/dl): 3.5
